Values of other authors, collected in patent publication US20250360119A1, “THIAZOLIDINEDIONES FOR THE TREATMENT OF MUSCULAR DYSTROPHIES” (The Johns Hopkins University, priority 2022, published 2025).

Experiments:
[1] = clinical studies
aged mice = details: injected into the muscle directly

Question: With `CC1(COc2ccc(CC3SC(=O)NC3=O)cc2)CCCCC1` (stereo not shown) [ciglitazone, 5-[4-(1-methylcyclohexylmethoxy)benzyl]-thiazolidine-2,4-dione] as the molecule, how does the blood glucose levels (KKAy mice) read?
Answer: reduce blood glucose levels without increasing insulin secretion

Question: And the peripheral insulin resistance (KKAy mice)?
Answer: reduce peripheral insulin resistance

Question: With `CN(CCOc1ccc(CC2SC(=O)NC2=O)cc1)c1ccccn1` (stereo not shown) [rosiglitazone] as the molecule, how does the cardiovascular toxicity [1] read?
Answer: no longer considered significant issues

B1: recombinant GDF3: recombinant Growth Differentiation Factor 3, a member of the TGFβ family (protein, UniProt Q9NR23 251-364, looked up)
Growth/differentiation factor …: AAIPVPKLSCKNLCHRHQLFINFRDLGWHKWIIAPKGFMANYCHGECPFSLTISLNSSNYAFMQALMHAVDPEIPQAVCIPTKLSPISMLYQDNNDNVILRHYEDMVVDECGCG
Question: For B1, which “delay in muscle regeneration after CTX injury” value (aged mice) is on record?
Answer: able to alleviate some of the delay
